According to patent publication US7999001B2 (priority 2007, dated 2011):
Entries after “also recorded” stand apart in the source; their conditions may differ.

Legend:
[1] = system: EBOV-GFP (recombinant Ebola Zaire virus expressing green fluorescence protein); assay: microbe, parasite or virus in culture; assay type: cell-based; settings: Zaire ebolavirus, Vero C1008, 48 h, read-out: EBOV % Inhibition (20 μM)
[2] = system: influenza virus (H1N1 A/Texas strain); assay type: cell-based
[3] = system: cowpox virus (CPXV, egfpCPV virus); design: species or system mice; settings: mouse, in vivo
[4] = system: Rift Valley Fever Virus (ZH501 strain); assay type: cell-based
[5] = system: MPXV-GFP (recombinant monkeypox virus expressing GFP, Zaire strain); assay: microbe, parasite or virus in culture; assay type: cell-based; settings: Vero C1008, in Primates, 48 h, read-out: Monkey Pox % Inhibition (20 μM)
EBOV-GFP = assay: microbe, parasite or virus in culture; assay type: cell-based, Ebola Zaire virus
[6] = system: Lassa virus (Josiah strain); assay type: cell-based
GFP-EBOV = assay type: cell-based, Ebola Zaire virus

| Structure (SMILES) | inhibition at 20 µM [1] [%] | antiviral activity toward influenza virus [2] | inhibition of influenza virus replication [2] | mean time to death [3] | antiviral activity toward RVFV [4] | inhibition at 20 µM [5] [%] | IC50 toward EBOV (in words) (EBOV-GFP) | dose dependent antiviral activity toward EBOV-GFP (EBOV-GFP) | antiviral activity toward LV (Lassa virus) [6] | inhibition of Lassa virus replication [6] | effect of 24 hours pre-treatment of cells versus treatment during and after infection (GFP-EBOV) | IC50 (EBOV-GFP; Zaire ebolavirus, Vero C1008, read-out: IC50 (read from graphs of % of control infection)) [µM] |
| --- | --- | --- | --- | --- | --- | --- | --- | --- | --- | --- | --- | --- |
| Cc1cc(NCCCN(C)C)c2ccc3c(ccc4c(NCCCN(C)C)cc(C)nc43)c2n1 [NSC 306365, N,N′-bis(3-dimethylaminopropyl)-3,9-dimethylquinolino[8,7-h]quinoline-1,7-diamine] | 99 | showed antiviral activity | half log; also recorded: inhibit the replication | increase in the mean time to death; also recorded: prolongs the mean time to death | showed antiviral activity; also recorded: dose-dependent inhibition; also recorded: dose dependent antiviral activity | 99 | submicromolar | dose dependent antiviral activity | showed antiviral activity; also recorded: dose dependent inhibition | one log; also recorded: inhibit the replication | – | – |
| N=C(N)c1ccc2oc(C=Cc3nc4cc(C(=N)N)ccc4[nH]3)cc2c1 [NSC 369723, 2-(2-(5-(amino(imino)methyl)-1-benzofuran-2-yl)vinyl)-1H-benzimidazole-5-carboximidamide] | 94 | not | – | – | not | – | – | dose dependent antiviral activity | not | – | more effective than treatment during and after infection | ~4 |
